In PMC6325200, “Effects of Microplate Type and Broth Additives on Microdilution MIC Susceptibility Assays” (Antimicrobial Agents and Chemotherapy, 2018):
In brackets after ≈: the same amount, converted by molar mass.

Key:
E. coli = conditions: literature value; cited from earlier work
MRSA = conditions: literature value; cited from earlier work
Excerpt: TABLE 1 Literature MIC values for tested antibiotics | column: MIC (µg/ml) (reference[s]) / MRSA

E. coli ATCC 25922 = experiment: microbe, parasite or virus in culture; conditions: Escherichia coli, n = 2
Outline: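 Broth microdilution with 2-fold serial compound dilutions in MH broth, using cultures diluted 40-fold and grown at 37°C for 2 to 3 h, with or without Tween. Variants included 2% beractant added to mid-log cultures, or 50% human serum in MHB.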

P. aeruginosa ATCC 10145 = experiment: microbe, parasite or virus in culture; conditions: Pseudomonas aeruginosa, n = 2
Outline: (§1)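 MH broth with or without Tween received a 40-fold dilution of each culture, held at 37°C for 2–3 h. Twofold dilution series of the compounds and standard antibiotics are run in 96-well plates.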

[1] = tested on: S. aureus GISA NRS 2; ATCC 700698; experiment: microbe, parasite or virus in culture; conditions: Staphylococcus aureus, n = 2
Outline: as §1

[2] = tested on: MSSA S. aureus ATCC 25923; experiment: microbe, parasite or virus in culture; conditions: Staphylococcus aureus, n = 2
Outline: as §1

E. faecalis ATCC 29212 = experiment: microbe, parasite or virus in culture; conditions: Enterococcus faecalis, n = 2
Outline: as §1

[3] = tested on: S. pneumoniae ATCC 700677 (MDR); experiment: microbe, parasite or virus in culture; conditions: Streptococcus pneumoniae, ATCC700677
Outline: as §1

S. pneumoniae ATCC 33440 = experiment: microbe, parasite or virus in culture; conditions: Streptococcus pneumoniae, n = 2
Outline: as §1

O=C(O)c1cn(C2CC2)c2cc(N3CCNCC3)c(F)cc2c1=O [Ciprofloxacin, ciprofloxacin]
MIC (literature) (E. coli): 0.03–0.06 ([64], [65]) µg/ml
MIC (literature) (MRSA): 0.5 ([63]) µg/ml
MIC (E. coli ATCC 25922; ATCC25922, 24 h, Corning NBS, MH + 2% LHB, 2% LS): 0.03 to 0.06 µg/mL
MIC (E. coli ATCC 25922; ATCC25922, 24 h, Corning NBS, MH + 2% LHB, 50% HS): ≤ 0.03 µg/mL
MIC (E. coli ATCC 25922; ATCC25922, 24 h, Corning NBS, MH + 2% LHB, no additive): ≤ 0.03 µg/mL
MIC (E. coli ATCC 25922; ATCC25922, 24 h, Corning NBS, MH + T80, 2% LS): ≤ 0.03 µg/mL
MIC (E. coli ATCC 25922; ATCC25922, 24 h, Corning NBS, MH + T80, 50% HS): ≤ 0.03 µg/mL
MIC (E. coli ATCC 25922; ATCC25922, 24 h, Corning PS, MH + 2% LHB, 2% LS): ≤ 0.03 µg/mL
MIC (E. coli ATCC 25922; ATCC25922, 24 h, Corning PS, MH + 2% LHB, 50% HS): ≤ 0.03 µg/mL
MIC (E. coli ATCC 25922; ATCC25922, 24 h, Corning PS, MH + 2% LHB, no additive): ≤ 0.03 µg/mL
MIC (E. coli ATCC 25922; ATCC25922, 24 h, Corning PS, MH + T80, 2% LS): ≤ 0.03 µg/mL
MIC (E. coli ATCC 25922; ATCC25922, 24 h, Corning PS, MH + T80, 50% HS): ≤ 0.03 µg/mL
MIC (E. coli ATCC 25922; ATCC25922, 24 h, Corning TC, MH + 2% LHB, 2% LS): ≤ 0.03 µg/mL
MIC (E. coli ATCC 25922; ATCC25922, 24 h, Corning TC, MH + 2% LHB, 50% HS): ≤ 0.03 µg/mL
MIC (E. coli ATCC 25922; ATCC25922, 24 h, Corning TC, MH + 2% LHB, no additive): ≤ 0.03 µg/mL
MIC (E. coli ATCC 25922; ATCC25922, 24 h, Corning TC, MH + T80, 2% LS): ≤ 0.03 µg/mL
MIC (E. coli ATCC 25922; ATCC25922, 24 h, Corning TC, MH + T80, 50% HS): ≤ 0.03 µg/mL
MIC (E. coli ATCC 25922; ATCC25922, 24 h, Trek PS, MH + 2% LHB, 2% LS): ≤ 0.03 µg/mL
MIC (E. coli ATCC 25922; ATCC25922, 24 h, Trek PS, MH + 2% LHB, 50% HS): ≤ 0.03 µg/mL
MIC (E. coli ATCC 25922; ATCC25922, 24 h, Trek PS, MH + 2% LHB, no additive): 0.03 to 0.06 µg/mL
MIC (E. coli ATCC 25922; ATCC25922, 24 h, Trek PS, MH + T80, 2% LS): ≤ 0.03 µg/mL
MIC (E. coli ATCC 25922; ATCC25922, 24 h, Trek PS, MH + T80, 50% HS): ≤ 0.03 µg/mL
MIC (E. coli ATCC 25922; ATCC25922, Corning NBS plate, MHB +0.002% T80, no further additive): ≤ 0.03 µg/mL
MIC (E. coli ATCC 25922; ATCC25922, Corning NBS plate, MHB −T80, no additive): ≤ 0.03 µg/mL
MIC (E. coli ATCC 25922; ATCC25922, Corning NBS, MH, 2% LS): ≤ 0.03 µg/mL
MIC (E. coli ATCC 25922; ATCC25922, Corning NBS, MH, 50% HS): ≤ 0.03 µg/mL
MIC (E. coli ATCC 25922; ATCC25922, Corning PS plate, MHB +0.002% T80, no further additive): ≤ 0.03 µg/mL
MIC (E. coli ATCC 25922; ATCC25922, Corning PS plate, MHB −T80, no additive): ≤ 0.03 µg/mL
MIC (E. coli ATCC 25922; ATCC25922, Corning PS, MH, 2% LS): ≤ 0.03 µg/mL
MIC (E. coli ATCC 25922; ATCC25922, Corning PS, MH, 50% HS): ≤ 0.03 µg/mL
MIC (E. coli ATCC 25922; ATCC25922, Corning TC plate, MHB +0.002% T80, no further additive): ≤ 0.03 µg/mL
MIC (E. coli ATCC 25922; ATCC25922, Corning TC plate, MHB −T80, no additive): ≤ 0.03 µg/mL
MIC (E. coli ATCC 25922; ATCC25922, Corning TC, MH, 2% LS): ≤ 0.03 µg/mL
MIC (E. coli ATCC 25922; ATCC25922, Corning TC, MH, 50% HS): ≤ 0.03 µg/mL
MIC (E. coli ATCC 25922; ATCC25922, Nunc PS plate, MHB −T80): ≤ 0.03 µg/mL
MIC (E. coli ATCC 25922; ATCC25922, Nunc U TC plate, MHB +0.002% T80): ≤ 0.03 µg/mL
MIC (E. coli ATCC 25922; ATCC25922, Nunc U TC plate, MHB −T80): ≤ 0.03 µg/mL
MIC (E. coli ATCC 25922; ATCC25922, Nunc flat TC plate, MHB +0.002% T80): ≤ 0.03 µg/mL
MIC (E. coli ATCC 25922; ATCC25922, Nunc flat TC plate, MHB −T80): ≤ 0.03 µg/mL
MIC (E. coli ATCC 25922; ATCC25922, Trek PS plate, MHB +0.002% T80, no further additive): ≤ 0.03 µg/mL
MIC (E. coli ATCC 25922; ATCC25922, Trek PS plate, MHB −T80, no additive): ≤ 0.03 µg/mL
MIC (E. coli ATCC 25922; ATCC25922, Trek PS, MH, 2% LS): ≤ 0.03 µg/mL
MIC (E. coli ATCC 25922; ATCC25922, Trek PS, MH, 50% HS): ≤ 0.03 µg/mL
MIC (P. aeruginosa ATCC 10145; ATCC10145, Corning PS, MHB +T80): 0.25 to 0.5 µg/mL (≈ 0.754 to 1.51 µM)
MIC (P. aeruginosa ATCC 10145; ATCC10145, Corning TC, MHB +T80): 0.25 to 0.5 µg/mL (≈ 0.754 to 1.51 µM)
MIC (P. aeruginosa ATCC 10145; ATCC10145, Corning TC, MHB -T80): ≤ 0.03 µg/mL
MIC ([1]; Corning NBS, MHB +T80): 64 µg/mL (≈ 193 µM)
MIC ([1]; Corning NBS, MHB -T80): 64 µg/mL (≈ 193 µM)
MIC ([1]; Corning PS, MHB +T80): 64 µg/mL (≈ 193 µM)
MIC ([1]; Corning TC, MHB +T80): 64 µg/mL (≈ 193 µM)
MIC ([1]; Corning TC, MHB -T80): 32 to 64 µg/mL (≈ 96.6 to 193 µM)
MIC ([2]; Corning NBS, MHB +T80): 0.5 to 1 µg/mL (≈ 1.51 to 3.02 µM)
MIC ([2]; Corning PS, MHB +T80): 0.5 µg/mL (≈ 1.51 µM)
MIC ([2]; Corning PS, MHB -T80): 0.25 to 0.5 µg/mL (≈ 0.754 to 1.51 µM)
MIC ([2]; Corning TC, MHB +T80): 0.5 to 1 µg/mL (≈ 1.51 to 3.02 µM)
MIC (E. faecalis ATCC 29212; ATCC29212, Corning NBS, MHB +T80): 2 µg/mL (≈ 6.04 µM)
MIC (E. faecalis ATCC 29212; ATCC29212, Corning NBS, MHB -T80): 2 µg/mL (≈ 6.04 µM)
MIC (E. faecalis ATCC 29212; ATCC29212, Corning TC, MHB +T80): 0.5 to 1 µg/mL (≈ 1.51 to 3.02 µM)
MIC (E. faecalis ATCC 29212; ATCC29212, Corning TC, MHB -T80): 0.25 µg/mL (≈ 0.754 µM)
MIC [3]: 0.5 to 1 µg/mL (≈ 1.51 to 3.02 µM)
MIC (S. pneumoniae ATCC 33440; ATCC33440, Corning NBS, MHB +T80): 0.25 to 1 µg/mL (≈ 0.754 to 3.02 µM)
MIC (S. pneumoniae ATCC 33440; ATCC33440, Corning PS, MHB -T80): 0.25 to 0.5 µg/mL (≈ 0.754 to 1.51 µM)
MIC (S. pneumoniae ATCC 33440; ATCC33440, Corning TC, MHB +T80): 0.25 to 0.5 µg/mL (≈ 0.754 to 1.51 µM)
MIC (S. pneumoniae ATCC 33440; ATCC33440, Corning TC, MHB -T80): 0.25 to 0.5 µg/mL (≈ 0.754 to 1.51 µM)
